In the supplement of paper PMC10307832:

Legend:
Assay in all cases: relative viability (nuclei count vs DMSO), 5 days (fraction); higher = more cells survive
[1] = system: 201T
How it was run: (§1)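 Cells from lung cancer lines were seeded into 1536-well plates and, one day later, dosed by pin tool. Treatments were either a single drug or a fixed dose of an anchor drug with five library-drug doses (not always all listed) in √10 steps. After 5 days, nuclei were stained in a one-step fixation (final 0.05% Triton X-100, 1% formaldehyde, 1 ug/ml Hoechst) and counted on 4× images, and relative viability is the treated-to-vehicle nuclei ratio, as the median of duplicate plates.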

[2] = system: ABC-1
How it was run: as §1

[3] = system: ChaGo-K-1
How it was run: as §1

[4] = system: EKVX
How it was run: as §1

[5] = system: EMC-BAC-2
How it was run: as §1

[6] = system: HCC-44
How it was run: as §1

[7] = system: HCC-78
How it was run: as §1

[8] = system: HOP-62
How it was run: as §1

[9] = system: LC-2-ad
How it was run: as §1

[10] = system: LK-2
How it was run: as §1

[11] = system: NCI-H1355
How it was run: as §1

[12] = system: NCI-H2009
How it was run: as §1

[13] = system: NCI-H2228
How it was run: as §1

[14] = system: NCI-H2347
How it was run: as §1

[15] = system: NCI-H3122
How it was run: as §1

[16] = system: NCI-H838
How it was run: as §1

[17] = system: PC-14
How it was run: as §1

[18] = system: RERF-LC-KJ
How it was run: as §1

[19] = system: SK-MES-1
How it was run: as §1

[20] = system: SW 1573
How it was run: as §1

[21] = system: SW 900
How it was run: as §1

[22] = system: UMC-11
How it was run: as §1

For `COCC1(CO)C(=O)C2CCN1CC2` (stereo not given) [PRIMA-1MET] + O=C(c1cc(Cc2n[nH]c(=O)c3ccccc23)ccc1F)N1CCN(C(=O)C2CC2)CC1 [Olaparib] (partner 8 µM), the relative viability ([1]; first compound 0.2 µM) was 0.947, the relative viability ([1]; first compound 0.6325 µM) was 0.829 and the relative viability ([1]; first compound 2 µM) was 0.808. For the same compound, the relative viability ([1]; first compound 6.325 µM) was 0.908, the relative viability ([1]; first compound 20 µM) was 0.839 and the relative viability ([2]; first compound 0.2 µM) was 0.993. For the same compound, the relative viability ([2]; first compound 2 µM) was 0.664, the relative viability ([2]; first compound 6.325 µM) was 0.662 and the relative viability ([2]; first compound 20 µM) was 0.616. It also gave a relative viability ([3]; first compound 0.2 µM) of 0.461, a relative viability ([3]; first compound 0.6325 µM) of 0.407 and a relative viability ([3]; first compound 2 µM) of 0.437. For the same compound, the relative viability ([3]; first compound 6.325 µM) was 0.426, the relative viability ([3]; first compound 20 µM) was 0.318 and the relative viability ([4]; first compound 0.2 µM) was 1.01. It also gave a relative viability ([4]; first compound 2 µM) of 0.694, a relative viability ([4]; first compound 6.325 µM) of 0.825 and a relative viability ([4]; first compound 20 µM) of 0.403. It also gave a relative viability ([5]; first compound 0.2 µM) of 0.624, a relative viability ([5]; first compound 0.6325 µM) of 0.486 and a relative viability ([5]; first compound 6.325 µM) of 0.499. The relative viability ([5]; first compound 20 µM) was 0.43, the relative viability ([6]; first compound 0.2 µM) was 1.06 and the relative viability ([6]; first compound 0.6325 µM) was 0.969. For the same compound, the relative viability ([6]; first compound 2 µM) was 1.12, the relative viability ([6]; first compound 6.325 µM) was 0.969 and the relative viability ([6]; first compound 20 µM) was 0.945. For the same compound, the relative viability ([7]; first compound 0.2 µM) was 1, the relative viability ([7]; first compound 0.6325 µM) was 1.06 and the relative viability ([7]; first compound 2 µM) was 0.573. The relative viability ([7]; first compound 6.325 µM) was 0.881, the relative viability ([7]; first compound 20 µM) was 0.338 and the relative viability ([8]; first compound 0.2 µM) was 0.489. It also gave a relative viability ([8]; first compound 0.6325 µM) of 0.388, a relative viability ([8]; first compound 2 µM) of 0.51 and a relative viability ([8]; first compound 6.325 µM) of 0.428. The relative viability ([8]; first compound 20 µM) was 0.0328, the relative viability ([9]; first compound 0.2 µM) was 0.751 and the relative viability ([9]; first compound 0.6325 µM) was 0.673. It also gave a relative viability ([9]; first compound 2 µM) of 0.659, a relative viability ([9]; first compound 6.325 µM) of 0.68 and a relative viability ([9]; first compound 20 µM) of 0.7. For the same compound, the relative viability ([10]; first compound 0.2 µM) was 0.823, the relative viability ([10]; first compound 0.6325 µM) was 0.632 and the relative viability ([10]; first compound 2 µM) was 0.513. For the same compound, the relative viability ([10]; first compound 6.325 µM) was 0.423, the relative viability ([10]; first compound 20 µM) was 0.0842 and the relative viability ([11]; first compound 0.2 µM) was 0.768. It also gave a relative viability ([11]; first compound 0.6325 µM) of 0.745, a relative viability ([11]; first compound 2 µM) of 0.713 and a relative viability ([11]; first compound 6.325 µM) of 0.818. The relative viability ([11]; first compound 20 µM) was 0.707, the relative viability ([12]; first compound 0.2 µM) was 0.657 and the relative viability ([12]; first compound 0.6325 µM) was 0.814. The relative viability ([12]; first compound 2 µM) was 0.709, the relative viability ([12]; first compound 6.325 µM) was 0.631 and the relative viability ([12]; first compound 20 µM) was 0.202. It also gave a relative viability ([13]; first compound 0.2 µM) of 0.768, a relative viability ([13]; first compound 0.6325 µM) of 0.522 and a relative viability ([13]; first compound 2 µM) of 0.762. For the same compound, the relative viability ([13]; first compound 6.325 µM) was 0.577, the relative viability ([13]; first compound 20 µM) was 0.0565 and the relative viability ([14]; first compound 0.2 µM) was 0.641. For the same compound, the relative viability ([14]; first compound 0.6325 µM) was 0.517, the relative viability ([14]; first compound 2 µM) was 0.559 and the relative viability ([14]; first compound 6.325 µM) was 0.624. It also gave a relative viability ([14]; first compound 20 µM) of 0.433, a relative viability ([15]; first compound 0.2 µM) of 0.661 and a relative viability ([15]; first compound 0.6325 µM) of 0.55. The relative viability ([15]; first compound 2 µM) was 0.614, the relative viability ([15]; first compound 6.325 µM) was 0.698 and the relative viability ([15]; first compound 20 µM) was 0.621. The relative viability ([16]; first compound 0.2 µM) was 0.788, the relative viability ([16]; first compound 0.6325 µM) was 0.76 and the relative viability ([16]; first compound 2 µM) was 0.809. The relative viability ([16]; first compound 6.325 µM) was 0.789, the relative viability ([16]; first compound 20 µM) was 0.579 and the relative viability ([17]; first compound 0.2 µM) was 0.261. It also gave a relative viability ([17]; first compound 0.6325 µM) of 0.208, a relative viability ([17]; first compound 2 µM) of 0.24 and a relative viability ([17]; first compound 6.325 µM) of 0.275. For the same compound, the relative viability ([17]; first compound 20 µM) was 0.209, the relative viability ([18]; first compound 0.2 µM) was 0.969 and the relative viability ([18]; first compound 0.6325 µM) was 0.988. For the same compound, the relative viability ([18]; first compound 2 µM) was 0.977, the relative viability ([18]; first compound 6.325 µM) was 1.09 and the relative viability ([18]; first compound 20 µM) was 0.922. The relative viability ([19]; first compound 0.2 µM) was 0.852, the relative viability ([19]; first compound 0.6325 µM) was 0.66 and the relative viability ([19]; first compound 2 µM) was 0.779. It also gave a relative viability ([19]; first compound 6.325 µM) of 0.622, a relative viability ([19]; first compound 20 µM) of 0.622 and a relative viability ([20]; first compound 0.2 µM) of 0.672. It also gave a relative viability ([20]; first compound 2 µM) of 0.388, a relative viability ([20]; first compound 6.325 µM) of 0.0574 and a relative viability ([20]; first compound 20 µM) of 0.0284. The relative viability ([21]; first compound 0.2 µM) was 1.06, the relative viability ([21]; first compound 0.6325 µM) was 0.888 and the relative viability ([21]; first compound 6.325 µM) was 0.882. The relative viability ([21]; first compound 20 µM) was 0.0786, the relative viability ([22]; first compound 0.2 µM) was 0.526 and the relative viability ([22]; first compound 0.6325 µM) was 0.312. It also gave a relative viability ([22]; first compound 2 µM) of 0.376, a relative viability ([22]; first compound 6.325 µM) of 0.417 and a relative viability ([22]; first compound 20 µM) of 0.406.
